The numbers were not newly measured in US5854247A, “Piperazine, piperidine and tetrahydropyridine derivatives useful as 5-HT1 recepter agonists” (Merck Sharp & Dohme Ltd., priority 1994, dated 1998), which cites them from elsewhere.

For this series the following is noted: humans, therapeutic doses.

On to `CNS(=O)(=O)Cc1ccc2[nH]cc(CCN(C)C)c2c1` [sumatriptan], for which the adverse cardiovascular events entry is recorded as “certain adverse cardiovascular events”.
